Where two headings read alike, the source gives them in different places.
Tests used:
[1] = tested on: BCL-2-dependent acute lymphoblastic leukemia RS4; 11 xenograft model; experiment: In vivo RS4; 11 xenograft study; set-up: species or system CB.17 SCID mice; settings: for BW Nadir / Tumor volume: po
Text: The CB.17 SCID mice were obtained at age 6-8 weeks from vendors and acclimated for a minimum 7-day period. The cancer cells were then implanted into the […] mice. Depending on the specific tumor type, tumors were typically detectable about two weeks following implantation. When tumor sizes reached ˜100-200 mm^3, the animals with appreciable tumor size and shape were randomly assigned into groups of 8 mice each, including one vehicle control group and treatment groups. Dosing varies depending on the purpose and length of each study, which typically proceeded for about 3-4 weeks. Tumor sizes and body weight were typically measured three times per week. In addition to the determination of tumor size changes, the last tumor measurement was used to generate the tumor size change ratio (T/C value), a standard metric developed by the National Cancer Institute for xenograft tumor evaluation. In most cases, % T/C values were calculated using the following formula: % T/C=100×ΔT/ΔC if ΔT>0. When tumor regression occurred (ΔT<0), however, the following formula was used: % T/T0=100×ΔT/T0.

RS4; 11 = experiment: In vitro anti-proliferation assay (ATPlite) in BCL-2-dependent ALL cell line RS4; 11; assay type: cell-based
Description: Cell antiproliferation was assayed by PerkinElmer ATPlite™ Luminescence Assay System. Briefly, the various test cancer cell lines were plated at a density of about 1×10^4 cells per well in Costar 96-well plates, and were incubated with different concentrations of compounds for about 72 hours in medium supplemented with 5% FBS or 10% normal human serum (NHS). One lyophilized substrate solution vial was then reconstituted by adding 5 mL of substrate buffer solution, and was agitated gently until the solution is homogeneous. About 50 μL of mammalian cell lysis solution was added to 100 μL of cell suspension per well of a microplate, and the plate was shaken for about five minutes in an orbital shaker at ˜700 rpm. This procedure was used to lyse the cells and to stabilize the ATP. Next, 50 μL substrate solution was added to the wells and microplate was shaken for five minutes in an orbital shaker at ˜700 rpm. Finally, the luminescence was measured by a PerkinElmer TopCount® Microplate Scintillation Counter. Such assays, carried out with a range of doses of test compounds, allowed the determination of the cellular anti-antiproliferative IC50 of the compounds of the present invention.

H345 xenograft model = settings: 100 mg/kg/day; cited from earlier work
[2] = tested on: xenograft models of small-cell lung cancer and acute lymphoblastic leukemia; settings: oral administration, alone; cited from earlier work
circulating platelets = settings: clinical trial; cited from earlier work
[3] = cited from earlier work
Mice PK study = assay type: in vivo; settings: po, 10 mg/kg, CD-1 mouse; for AUC / half-life / bioavailability: plasma; for half-life: read-out: t½ (converted); for bioavailability: read-out: Bioavailabilty
Description: The pharmacokinetics of compounds were evaluated in CD-1 mouse via Intravenous and Oral Administration. The IV dose was administered as a slow bolus in the Jugular vein, and oral doses were administered by gavage. The formulation for IV dosing is 5% DMSO in 20% HPBCD in water, and the PO formulation is 2.5% DMSO, 10% EtOH, 20% Cremphor EL, 67.5% D5W. The PK time point for the IV arm was 5, 15, 30 min, 1, 2, 4, 6, 8, 12, 24 hours post dose, and for PO arm was 15, 30 min, 1, 2, 4, 6, 8, 12, 24 hours post dose. Approximately 0.03 mL blood was collected at each time point. Blood of each sample was transferred into plastic micro centrifuge tubes containing EDTA-K2 and plasma was collected within 15 min by centrifugation at 4000 g for 5 minutes in a 4′C centrifuge. Plasma samples were stored in polypropylene tubes. The samples were stored in a freezer at −75±15° C. prior to analysis. Concentrations of compounds in the plasma samples were analyzed using a LC-MS/MS method. WinNonlin (Phoenix™, version 6.1) or other similar software was used for pharmacokinetic calculations. The following pharmacokinetic parameters were calculated, whenever possible from the plasma concentration versus time data: IV administration: C0, CL, Vd, T1/2, AUCinf, AUClast, MRT, Number of Points for Regression; PO administration: Cmax, Tmax, T1/2, AUCinf, AUClast, F %, Number of Points for Regression. The pharmacokinetic data was described using descriptive statistics such as mean, standard deviation. Additional pharmacokinetic or statistical analysis was performed at the discretion of the contributing scientist, and was documented in the data summary.

[4] = Homo sapiens, RS4-11, 72 h, read-out: IC50, RS4, 11 5% FBS, about 72 hours, first study
[5] = Homo sapiens, RS4-11, 72 h, read-out: IC50, RS4, 11 5% FBS, about 72 hours, another study

CC1(C)CCC(CN2CCN(c3ccc(C(=O)NS(=O)(=O)c4ccc(NCC5CCOCC5)c([N+](=O)[O-])c4)c(Oc4cnc5[nH]ccc5c4)c3)CC2)=C(c2ccc(Cl)cc2)C1 [ABT-199, reference compound]
BW Nadir ([1]; 50 mg/kg, qd × 7): −3.60% | Tumor volume ([1]; 50 mg/kg, qd × 7): 0 mm^3 | Tumor volume ([1]; 50 mg/kg, qd × 21): 17.4 mm^3 | IC50 (RS4; 11; [4]): 5.5 nM

CC1(C)CCC(c2ccc(Cl)cc2)=C(CN2CCN(c3ccc(C(=O)NS(=O)(=O)c4ccc(N[C@H](CCN5CCOCC5)CSc5ccccc5)c(S(=O)(=O)C(F)(F)F)c4)cc3)CC2)C1 [ABT-263]
TGI (H345 xenograft model): 80% | treated tumors indicating at least a 50% reduction in tumor volume (H345 xenograft model): 20% | tumor regressions [2]: complete tumor regressions | number of circulating platelets (circulating platelets): rapid, concentration-dependent decrease in the number of circulating platelets

CN(C)CC[C@H](CSc1ccccc1)Nc1ccc(S(=O)(=O)NC(=O)c2ccc(N3CCN(Cc4ccccc4-c4ccc(Cl)cc4)CC3)cc2)cc1[N+](=O)[O-] [ABT-737]
aqueous solubility [3]: low

CC1(C)CCC(CN2CCN(c3ccc(C(=O)NS(=O)(=O)c4ccc(NCC5CCOCC5)c([N+](=O)[O-])c4)c(N4CCOc5nc6[nH]ccc6cc54)c3)CC2)=C(c2ccc(Cl)cc2)C1 [Example 2 (NW-4-8), 4-(4-[[2-(4-chlorophenyl)-4,4-dimethylcyclohex-1-en-1-yl]methyl]piperazin-1-yl)-N-([3-nitro-4-[(oxan-4-ylmethyl)amino]benzene]sulfonyl)-2-[13-oxa-2,4,10-triazatricyclo[7.4.0.0^[3,7]]trideca-1,3(7),5,8-tetraen-10-yl]benzamide]
IC50 (RS4; 11; read-out: IC50, RS4, 11 5% FBS, about 72 hours, first study): 4.8 nM | AUC(h * ng/mL) (Mice PK study): 10,365 h * ng/mL | Bioavailabilty (Mice PK study): 68% | t½ (Mice PK study): 2.7 h

CC1(C)CCC(CN2CCN(c3ccc(C(=O)NS(=O)(=O)c4ccc(NCC5(F)CCOCC5)c([N+](=O)[O-])c4)c(N4CCOc5nc6[nH]ccc6cc54)c3)CC2)=C(c2ccc(Cl)cc2)C1 [Example 3, 4-(4-((4′-chloro-5,5-dimethyl-3,4,5,6-tetrahydro-[1,1′-biphenyl]-2-yl)methyl)piperazin-1-yl)-2-(2,3-dihydropyrrolo[3′,2′:5,6]pyrido[2,3-b][1,4]oxazin-1(6H)-yl)-N-((4-(((4-fluorotetrahydro-2H-pyran-4-yl)methyl)amino)-3-nitrophenyl)sulfonyl)benzamide]
BW Nadir ([1]; 25 mg/kg, qd × 7): −3.60% | Tumor volume ([1]; 25 mg/kg, qd × 7): 368 mm^3 | BW Nadir ([1]; 50 mg/kg, qd × 7): −2.90% | Tumor volume ([1]; 50 mg/kg, qd × 7): 26 mm^3 | tumor regression ([1]; 100 mg/kg, day 18): complete regression of the tumor | BW Nadir ([1]; 100 mg/kg, qd × 7): −2.10% | Tumor volume ([1]; 100 mg/kg, qd × 7): 0 mm^3 | effect on tumor growth ([1]; 7 doses (qd × 7), 25-100 mg/kg po): dose-dependent reduction of tumor growth | IC50 (RS4; 11; [5]): 1.4 nM | IC50 (RS4; 11; [4]): 2.6 nM

C[C@@H]1CN(c2cc(N3CCN(CC4=C(c5ccc(Cl)cc5)CC(C)(C)CC4)CC3)ccc2C(=O)NS(=O)(=O)c2ccc(NCC3(F)CCOCC3)c([N+](=O)[O-])c2)c2cc3cc[nH]c3nc2O1 [Example 6 (R), (R)-4-(4-((4′-chloro-5,5-dimethyl-3,4,5,6-tetrahydro-[1,1′-biphenyl]-2-yl)methyl)piperazin-1-yl)-N-((4-(((4-fluorotetrahydro-2H-pyran-4-yl)methyl)amino)-3-nitrophenyl)sulfonyl)-2-(3-methyl-2,3-dihydropyrrolo[3′,2′:5,6]pyrido[2,3-b][1,4]oxazin-1(6H)-yl)benzamide]
IC50 (RS4; 11; [5]): 1.3 nM | AUC (Mice PK study): 16100 ng·h/mL | half-life (Mice PK study): 3.2 h

C[C@H]1CN(c2cc(N3CCN(CC4=C(c5ccc(Cl)cc5)CC(C)(C)CC4)CC3)ccc2C(=O)NS(=O)(=O)c2ccc(NCC3(F)CCOCC3)c([N+](=O)[O-])c2)c2cc3cc[nH]c3nc2O1 [Example 6 (S), (S)-4-(4-((4′-chloro-5,5-dimethyl-3,4,5,6-tetrahydro-[1,1′-biphenyl]-2-yl)methyl)piperazin-1-yl)-N-((4-(((4-fluorotetrahydro-2H-pyran-4-yl)methyl)amino)-3-nitrophenyl)sulfonyl)-2-(3-methyl-2,3-dihydropyrrolo[3′,2′:5,6]pyrido[2,3-b][1,4]oxazin-1(6H)-yl)benzamide]
IC50 (RS4; 11; [5]): 3.2 nM | AUC (Mice PK study): 12100 ng·h/mL | bioavailability (Mice PK study): 74%

CC1(C)CCC(CN2CCN(c3ccc(C(=O)NS(=O)(=O)c4ccc(NCC5(F)CCOCC5)c([N+](=O)[O-])c4)c(N4CC(C)(C)Oc5nc6[nH]ccc6cc54)c3)CC2)=C(c2ccc(Cl)cc2)C1 [Example 7, 4-(4-((4′-chloro-5,5-dimethyl-3,4,5,6-tetrahydro-[1,1′-biphenyl]-2-yl)methyl)piperazin-1-yl)-2-(3,3-dimethyl-2,3-dihydropyrrolo[3′,2′:5,6]pyrido[2,3-b][1,4]oxazin-1(6H)-yl)-N-((4-(((4-fluorotetrahydro-2H-pyran-4-yl)methyl)amino)-3-nitrophenyl)sulfonyl)benzamide]
IC50 (RS4; 11; [5]): 5.6 nM | AUC (Mice PK study): 11000 ng·h/mL | bioavailability (Mice PK study): 90% | half-life (Mice PK study): 3.2 h

C[C@H]1CN(c2cc(N3CCN(CC4=C(c5ccc(Cl)cc5)CC(C)(C)CC4)CC3)ccc2C(=O)NS(=O)(=O)c2ccc(NCC3CCOCC3)c([N+](=O)[O-])c2)c2cc3cc[nH]c3nc2O1 [Example 9, (S)-4-(4-((4′-chloro-5,5-dimethyl-3,4,5,6-tetrahydro-[1,1′-biphenyl]-2-yl)methyl)piperazin-1-yl)-2-(3-methyl-2,3-dihydropyrrolo[3′,2′:5,6]pyrido[2,3-b][1,4]oxazin-1(6H)-yl)-N-((3-nitro-4-(((tetrahydro-2H-pyran-4-yl)methyl)amino)phenyl)sulfonyl)benzamide]
AUC (Mice PK study): 19900 ng·h/mL | half-life (Mice PK study): 4.1 h

C[C@@H]1CN(c2cc(N3CCN(CC4=C(c5ccc(Cl)cc5)CC(C)(C)CC4)CC3)ccc2C(=O)NS(=O)(=O)c2ccc(NCC3CCOCC3)c([N+](=O)[O-])c2)c2cc3cc[nH]c3nc2O1 [Example 10, (R)-4-(4-((4′-chloro-5,5-dimethyl-3,4,5,6-tetrahydro-[1,1′-biphenyl]-2-yl)methyl)piperazin-1-yl)-2-(3-methyl-2,3-dihydropyrrolo[3′,2′:5,6]pyrido[2,3-b][1,4]oxazin-1(6H)-yl)-N-((3-nitro-4-(((tetrahydro-2H-pyran-4-yl)methyl)amino)phenyl)sulfonyl)benzamide]
AUC (Mice PK study): 35000 ng·h/mL | bioavailability (Mice PK study): 78% | half-life (Mice PK study): 4.1 h
